Assay results taken from patent US20130184272A1, “DIABETES THERAPEUTIC AGENT” (TAKEDA PHARMACEUTICAL COMPANY LIMITED, priority 2010, published 2013).

What was measured:
Female KKA^y mice = assay: Anti-diabetes action and dyslipidemia improving effect in KKA^y mouse; assay type: in vivo; conditions: mixed feed dose 0.0001 %, 2 weeks; control group = 100
Protocol: Female KKA^y mice (12-week-old, CLEA Japan, Inc.) were bred while allowing free ingestion of both feed and water. The mice were bred for acclimation with powder CE-2 (CLEA Japan, Inc.) from 2 weeks before administration of the compound. The body weight and plasma markers were measured and, at 14 weeks of age, they were divided such that the measured values were uniform with those of the control group. The compound of Reference Example 1, 2, 7, 8, 9 or 22 was administered for 2 weeks in a mixed feed (0.01-0.0001%). On the last day, plasma levels of glucose, insulin, total cholesterol and neutral lipid were measured.

[1] = system: Male C57BL/6J mice on a high-fat diet; assay: Antiobesity, dyslipidemia and diabetes improving effect in mouse fed with high-fat diet; assay type: in vivo; parameters: plasma leptin (mg/dL): unit not given here; conditions: for epididymal fat mass / gastrocnemius muscle weight (g/100 g body weight) / hepatocyte weight / mesenteric fat mass: Day 38
Protocol: Male C57BL/6J mice (CLEA Japan, Inc.) were bred from 5-week-old on a high-fat diet (D12451, research diet) while allowing free ingestion of both feed and water to prepare obesity mice. The mice were bred for acclimation for 2 weeks from 21-week-old. The body weight and plasma markers were measured when 23-week-old, the mice were divided into 6 groups (6 per group) such that the values thereof were uniform, and Reference Example 1 (0.01-0.1 mg/kg) or Reference Example 7 (1-3 mg/kg) was orally administered for 5 weeks. After 14 and 28 days, plasma levels of total cholesterol, neutral lipid, glucose, insulin, leptin, adiponectin and glycated hemoglobin were measured. On the last day, the mice were autopsied, and weights of mesenteric fat, epididymal fat, liver and gastrocnemius muscle were measured. The data of Table 18 show mean±standard deviation at n=5-6 (n is the number of samples).

[2] = system: Mouse-derived myoblast line C2C12 cell; assay: Cell differentiation promoting activity in myoblast (creatine kinase activity); assay type: cell-based; conditions: Mus musculus, C2C12, 48 h; compound at 0.01 μM (**); 2 days; without compound = 100%; read-out: creatine kinase activating action (%)
Summary of the method: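 C2C12 myoblasts at ≥90% subconfluence were switched to high-glucose DMEM with 2% horse serum plus compound for 2 days. Creatine kinase in NP-40/freeze-thaw lysates indexed differentiation, given as % of the DMSO control. Compounds were tested mostly at 1 μM, some at 10 μM or 0.01 μM.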

## Cc1ncccc1Oc1sc(C(N)=O)c2c1-c1c(cnn1C)CC2 [Ref. Ex. 1, 1-methyl-8-[(2-methylpyridin-3-yl)oxy]-4,5-dihydro-1H-thieno[3,4-g]indazole-6-carboxamide]
Female KKA^y mice
  plasma glucose (%): 53.2 ± 19.1%
  plasma insulin (%): 27.3 ± 19.5%
  plasma neutral lipid (%): 38.9 ± 11.0%
  plasma total cholesterol (%): 61.6 ± 10.8%
[1]; 0.01 mg/kg oral
  average amount of ingestion: 3.7 ± 0.2 g/day
  body weight (g) change: 3.0 ± 1.2 g
  epididymal fat mass: 0.91 ± 0.26 g
  gastrocnemius muscle weight (g/100 g body weight): 0.373 ± 0.030 g/100 g body weight
  hepatocyte weight: 1.81 ± 0.23 g
  mesenteric fat mass: 0.87 ± 0.17 g
[1]; 0.01 mg/kg oral, Day 0
  body weight: 40.9 ± 2.5 g
  glycated hemoglobin (%): 4.5 ± 0.2%
  plasma adiponectin (μg/dL)): 15.9 ± 3.4 µg/dL
  plasma glucose: 178.1 ± 26.5 mg/dL
  plasma insulin: 4.2 ± 2.0 ng/mL
  plasma leptin (mg/dL): 54.2 ± 21.0
  plasma neutral fats: 73.4 ± 15.1 mg/dL
  plasma total cholesterol: 222.1 ± 45.4 mg/dL
[1]; 0.01 mg/kg oral, Day 14
  glycated hemoglobin (%): 4.0 ± 0.3 %
  plasma adiponectin (μg/dL)): 15.5 ± 2.5 µg/dL
  plasma glucose: 156.0 ± 23.4 mg/dL
  plasma insulin: 6.2 ± 5.8 ng/mL
  plasma leptin (mg/dL): 71.2 ± 22.0
  plasma neutral fats: 59.4 ± 18.5 mg/dL
  plasma total cholesterol: 182.6 ± 19.5 mg/dL
[1]; 0.01 mg/kg oral, Day 28
  glycated hemoglobin (%): 3.8 ± 0.4%
  plasma adiponectin (μg/dL)): 14.7 ± 2.9 µg/dL
  plasma glucose: 162.9 ± 24.4 mg/dL
  plasma insulin: 5.4 ± 3.9 ng/mL
  plasma leptin (mg/dL): 81.8 ± 23.9
  plasma neutral fats: 45.5 ± 14.1 mg/dL
  plasma total cholesterol: 187.2 ± 15.9 mg/dL
[1]; 0.01 mg/kg oral, Day 37
  body weight: 44.9 ± 2.6 g
[1]; 0.03 mg/kg oral
  average amount of ingestion: 3.2 ± 0.2 g/day
  body weight (g) change: -0.2 ± 0.9 g
  epididymal fat mass: 0.72 ± 0.05 g
  gastrocnemius muscle weight (g/100 g body weight): 0.407 ± 0.017 g/100 g body weight
  hepatocyte weight: 1.56 ± 0.11 g
  mesenteric fat mass: 0.57 ± 0.11 g
[1]; 0.03 mg/kg oral, Day 0
  body weight: 40.9 ± 2.2 g
  glycated hemoglobin (%): 4.5 ± 0.1%
  plasma adiponectin (μg/dL)): 18.0 ± 4.0 µg/dL
  plasma glucose: 178.5 ± 27.8 mg/dL
  plasma insulin: 6.0 ± 3.7 ng/mL
  plasma leptin (mg/dL): 70.3 ± 19.6
  plasma neutral fats: 72.3 ± 34.0 mg/dL
  plasma total cholesterol: 238.2 ± 19.0 mg/dL
[1]; 0.03 mg/kg oral, Day 14
  glycated hemoglobin (%): 4.1 ± 0.1 %
  plasma adiponectin (μg/dL)): 19.5 ± 3.1 µg/dL
  plasma glucose: 154.9 ± 12.1 mg/dL
  plasma insulin: 3.5 ± 2.1 ng/mL
  plasma leptin (mg/dL): 54.7 ± 19.0
  plasma neutral fats: 50.9 ± 14.7 mg/dL
  plasma total cholesterol: 165.6 ± 11.3 mg/dL
[1]; 0.03 mg/kg oral, Day 28
  glycated hemoglobin (%): 4.1 ± 0.1%
  plasma adiponectin (μg/dL)): 16.4 ± 3.8 µg/dL
  plasma glucose: 167.0 ± 20.4 mg/dL
  plasma insulin: 2.7 ± 0.8 ng/mL
  plasma leptin (mg/dL): 62.4 ± 18.1
  plasma neutral fats: 54.4 ± 19.8 mg/dL
  plasma total cholesterol: 170.3 ± 13.5 mg/dL
[1]; 0.03 mg/kg oral, Day 37
  body weight: 41.0 ± 2.3 g
[1]; 0.1 mg/kg oral
  average amount of ingestion: 2.7 ± 0.3 g/day
  body weight (g) change: -4.1 ± 0.7 g
  epididymal fat mass: 0.47 ± 0.10 g
  gastrocnemius muscle weight (g/100 g body weight): 0.468 ± 0.033 g/100 g body weight
  hepatocyte weight: 1.37 ± 0.24 g
  mesenteric fat mass: 0.30 ± 0.08 g
[1]; 0.1 mg/kg oral, Day 0
  body weight: 38.8 ± 3.5 g
  glycated hemoglobin (%): 4.5 ± 0.2%
  plasma adiponectin (μg/dL)): 16.8 ± 5.7 µg/dL
  plasma glucose: 183.9 ± 35.2 mg/dL
  plasma insulin: 4.3 ± 1.8 ng/mL
  plasma leptin (mg/dL): 55.7 ± 15.4
  plasma neutral fats: 63.2 ± 9.1 mg/dL
  plasma total cholesterol: 218.2 ± 19.0 mg/dL
[1]; 0.1 mg/kg oral, Day 14
  glycated hemoglobin (%): 4.0 ± 0.2 %
  plasma adiponectin (μg/dL)): 22.8 ± 3.8 µg/dL
  plasma glucose: 159.6 ± 26.7 mg/dL
  plasma insulin: 1.4 ± 0.6 ng/mL
  plasma leptin (mg/dL): 27.4 ± 19.1
  plasma neutral fats: 25.2 ± 7.6 mg/dL
  plasma total cholesterol: 129.1 ± 15.4 mg/dL
[1]; 0.1 mg/kg oral, Day 28
  glycated hemoglobin (%): 3.8 ± 0.2 %
  plasma adiponectin (μg/dL)): 19.2 ± 2.9 µg/dL
  plasma glucose: 138.6 ± 17.3 mg/dL
  plasma insulin: 1.4 ± 0.6 ng/mL
  plasma leptin (mg/dL): 29.2 ± 20.0
  plasma neutral fats: 34.7 ± 12.5 mg/dL
  plasma total cholesterol: 135.1 ± 15.4 mg/dL
[1]; 0.1 mg/kg oral, Day 37
  body weight: 35.6 ± 3.9 g
[1]; obese mouse model fed with a high-fat diet
  body weight (in words): clear body weight decreasing action
[2]
  activity at 0.01 µM: 175%
